From patent US20230312577A1, “DUAL KINASE-BROMODOMAIN INHIBITORS” (MONASH UNIVERSITY, priority 2020, published 2023)

Experiments:
PI3K = target: T1, PI3K; experiment: PI3K enzyme activity assay (luminescence, ATP consumption, Kinase-Glo); type: biochemical; conditions: 10 μM ATP, 180 μM phosphatidyl inositol, 60 min
T1 construct: PI3K Enzyme Activity Assay IC50 (nM); other: 10 μM ATP, 180 μM phosphatidyl inositol, 60 min
Description: PI3K activity was determined using a luminescence assay measuring ATP consumption as described previously (J.-A. Pinson, Z. Zheng, M. S. Miller, D. K. Chalmers, I. G. Jennings, P. E. Thompson, L-Aminoacyl-triazine derivatives are isoform-selective PI3Kβ inhibitors that target nonconserved Asp862 of PI3Kb, ACS Med. Chem. Lett. 4 (2013) 206-210). PI3K enzyme activity was determined in 25 μl of 20 mM HEPES pH 7.5, 5 mM MgCl2 with 180 μM phosphatidyl inositol and 10 μMATP. After a 60 min incubation at room temperature the reaction was stopped by the addition of Kinase-Glo (Promega) followed by a further 15 min incubation. Luminescence was then read using a Fluostar plate reader (BMGLabtech).
Inhibitors were diluted in 20% (v/v) DMSO at the indicated concentrations in order to generate a concentration versus inhibition of enzyme activity curve which was then analysed using GraphPad Prism version 8.00 for Windows, (GraphPad Software, San Diego California USA) in order to calculate the IC50. Standard deviations for the calculated IC50's are within 25% of the mean.

OPM2 cells = experiment: Cell proliferation assay (ViaLight, cellular ATP); type: cell-based; conditions: Homo sapiens, OPM-2, 120 h, 5 days, 5 μM to 1 nM
Description: OPM2 cells (1×10^3) were plated in a 96 well plate. Test compounds were added to cells at final concentrations ranging from 5 μM to 1 nM. They were incubated for 5 days before they were analysed using ViaLight luminescence-based proliferation assays which detect cellular ATP, as per the manufacturer's instructions. All samples were prepared in technical triplicates. Data analysis was performed in GraphPad Prism version 7.00 for Mac OS X, (GraphPad Software, San Diego California USA) in order to calculate the GI50.

IC50 (PI3K) [nM]	SMILES	GI50 (OPM2 cells) [nM]
100 to 500	CC(=O)N1c2ccc(-c3ccc(CN4CCN(Cc5cc6nc(-c7cnc(N)nc7)nc(N7CCOCC7)c6s5)CC4)cc3)cc2CC[C@@H]1C [Cpd 029, (S)-1-(6-(4-((4-((2-(2-Aminopyrimidin-5-yl)-4-morpholinothieno[3,2-d]pyrimidin-6-yl)methyl)piperazin-1-yl)methyl)phenyl)-2-methyl-3,4-dihydroquinolin-1(2H)-yl)ethan-1-one]	100 to 500
100 to 500	CC(=O)N1c2ccc(-c3ccc(C(=O)N4CCN(Cc5cc6nc(-c7cnc(N)nc7)nc(N7CCOCC7)c6s5)CC4)cc3)cc2CC[C@@H]1C [Cpd 028, (S)-1-(6-(4-(4-((2-(2-Aminopyrimidin-5-yl)-4-morpholinothieno[3,2-d]pyrimidin-6-yl)methyl)piperazine-1-carbonyl)phenyl)-2-methyl-3,4-dihydroquinolin-1(2H)-yl)ethan-1-one]	100 to 500
≤ 100	CC(=O)N1c2ccc(-c3ccc(CC(=O)NCc4cc5nc(-c6cnc(N)nc6)nc(N6CCOCC6)c5s4)cc3)cc2CC[C@@H]1C [Cpd 027, (S)-2-(4-(1-Acetyl-2-methyl-1,2,3,4-tetrahydroquinolin-6-yl)phenyl)-N-((2-(2-aminopy-rimidin-5-yl)-4-morpholinothieno[3,2-d]pyrimidin-6-yl)methyl)acetamide]	100 to 500
100 to 500	CC(=O)N1c2ccc(-c3ccc(C(=O)NCc4cc5nc(-c6cnc(N)nc6)nc(N6CCOCC6)c5s4)cc3)cc2CC[C@@H]1C [Cpd 026, (S)-4-(1-Acetyl-2-methyl-1,2,3,4-tetrahydroquinolin-6-yl)-N-((2-(2-aminopyrimidin-5-yl)-4-morpholinothieno[3,2-d]pyrimidin-6-yl)methyl)benzamide]	≤ 100
> 500	CC(=O)N1c2ccc(-c3ccc(CNC(=O)c4cc5nc(-c6cnc(N)nc6)nc(N6CCOCC6)c5s4)cc3)cc2CC[C@@H]1C [Cpd 030, (S)-N-(4-(1-acetyl-2-methyl-1,2,3,4-tetrahydroquinolin-6-yl)benzyl)-2-(2-aminopyrimidin-5-yl)-4-morpholinothieno[3,2-d]pyrimidine-6-carboxamide]	≤ 100
≤ 100	CC(=O)N1c2ccc(-c3ccc(C(=O)NCCNC(=O)c4sc5c(N6CCOCC6)nc(-c6cnc(N)nc6)nc5c4C)cc3)cc2CC[C@@H]1C [Cpd 033, (S)-N-(2-(4-(1-Acetyl-2-methyl-1,2,3,4-tetrahydroquinolin-6-yl)benzamido)ethyl)-2-(2-aminopyrimidin-5-yl)-7-methyl-4-morpholinothieno[3,2-d]pyrimidine-6-carboxamide]	≤ 100
≤ 100	CC(=O)N1c2ccc(-c3ccc(CNC(=O)c4nc5c(N6CCOCC6)nc(-c6cnc(N)nc6)cn5c4C)cc3)cc2CC[C@@H]1C [Cpd 020, (S)-N-(4-(1-acetyl-2-methyl-1,2,3,4-tetrahydroquinolin-6-yl)benzyl)-6-(2-aminopyrimidin-5-yl)-3-methyl-8-morpholinoimidazo[1,2-a]pyrazine-2-carboxamide]	≤ 100
	CC(=O)N1c2ccc(-c3ccc(CNC(=O)c4cn5c(N6CCOCC6)nc(-c6cnc(N)nc6)cc5n4)cc3)cc2CC[C@@H]1C [Cpd 070, (S)-N-(4-(1-Acetyl-2-methyl-1,2,3,4-tetrahydroquinolin-6-yl)benzyl)-7-(2-aminopyrimidin-5-yl)-5-morpholinoimidazo[1,2-c]pyrimidine-2-carboxamide]	≤ 100
≤ 100	CC(=O)N1c2ccc(-c3ccc(C(=O)NCCNC(=O)c4nc5c(N6CCOCC6)nc(-c6cnc(N)nc6)cn5c4C)cc3)cc2CC[C@@H]1C [Cpd 021, (S)-N-(2-(4-(1-Acetyl-2-methyl-1,2,3,4-tetrahydroquinolin-6-yl)benzamido)ethyl)-6-(2-aminopyrimidin-5-yl)-3-methyl-8-morpholinoimidazo[1,2-a]pyrazine-2-carboxamide]	≤ 100
